Data reported in patent US9334286B2, “Pharmacologically active compounds” (Cancer Research Technology Limited, priority 2012, dated 2016).

Each compound was assayed against full length MPS1 (Homo sapiens (Human), UniProt P33981) (assay: Measurement of inhibition of MPS1 kinase (Caliper EZ reader, fluorescent labelled peptide H236)). Settings: full length MPS1 12.5 nM or 3 nM, peptide H236 5 μM, ATP 10 μM, 60 min at room temperature.
Assay type: biochemical

full length MPS1, sequence (P33981 whole entry): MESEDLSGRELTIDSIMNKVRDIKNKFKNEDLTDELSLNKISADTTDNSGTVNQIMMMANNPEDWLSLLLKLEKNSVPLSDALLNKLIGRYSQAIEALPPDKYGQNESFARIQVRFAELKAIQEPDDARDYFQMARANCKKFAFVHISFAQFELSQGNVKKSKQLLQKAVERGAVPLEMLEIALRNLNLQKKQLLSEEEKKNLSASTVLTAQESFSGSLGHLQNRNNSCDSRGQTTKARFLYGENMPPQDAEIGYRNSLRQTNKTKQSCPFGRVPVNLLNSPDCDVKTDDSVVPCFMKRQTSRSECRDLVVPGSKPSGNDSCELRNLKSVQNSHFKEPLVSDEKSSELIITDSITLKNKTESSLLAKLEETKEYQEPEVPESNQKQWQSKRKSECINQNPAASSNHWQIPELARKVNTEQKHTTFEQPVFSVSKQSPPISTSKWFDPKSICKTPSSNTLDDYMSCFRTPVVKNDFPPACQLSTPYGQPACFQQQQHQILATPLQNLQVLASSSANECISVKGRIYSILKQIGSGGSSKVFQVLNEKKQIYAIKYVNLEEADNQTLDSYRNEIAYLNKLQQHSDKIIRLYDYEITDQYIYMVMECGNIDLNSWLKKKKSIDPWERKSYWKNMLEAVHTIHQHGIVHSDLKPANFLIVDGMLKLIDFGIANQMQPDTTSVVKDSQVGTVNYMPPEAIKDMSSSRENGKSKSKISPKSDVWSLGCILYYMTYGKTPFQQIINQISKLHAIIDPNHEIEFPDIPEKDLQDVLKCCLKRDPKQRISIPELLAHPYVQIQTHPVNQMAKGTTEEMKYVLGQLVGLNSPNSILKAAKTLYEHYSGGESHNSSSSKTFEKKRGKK

Compound | IC50
COc1cc(-c2ncnn2C)ccc1Nc1cc2cc(-c3cnn(CC(C)(C)O)c3)ccc2cn1 [Example 64, 1-(4-(3-((2-Methoxy-4-(1-methyl-1H-1,2,4-triazol-5-yl)phenyl)amino)isoquinolin-6-yl)-1H-pyrazol-1-yl)-2-methylpropan-2-ol] | 1 nM
COc1cc(C(=O)N2CCS(=O)(=O)CC2)ccc1Nc1cc2cc(-c3cnn(CC(C)(C)O)c3)ccc2cn1 [Example 65, (1,1-Dioxidothiomorpholino)(4-((6-(1-(2-hydroxy-2-methylpropyl)-1H-pyrazol-4-yl)isoquinolin-3-yl)amino)-3-methoxyphenyl)methanone] | 2 nM
COc1cc(C(=O)N2CCN(C)CC2)ccc1Nc1cc2cc(-c3cnn(CC(C)(C)O)c3)ccc2cn1 [Example 66] | 2 nM
COc1cc(C(=O)NC2CCN(C)CC2)ccc1Nc1cc2cc(-c3cnn(CC(C)(C)O)c3)ccc2cn1 [Example 67, 4-((6-(1-(2-Hydroxy-2-methylpropyl)-1H-pyrazol-4-yl)isoquinolin-3-yl)amino)-3-methoxy-N-(1-methylpiperidin-4-yl)benzamide] | 5 nM
COc1cc(-c2cnc(C)n2CC(C)(C)O)ccc1Nc1cc2cc(-c3cnn(CC(C)(C)O)c3)ccc2cn1 [Example 69, 1-(5-(4-((6-(1-(2-Hydroxy-2-methylpropyl)-1H-pyrazol-4-yl)isoquinolin-3-yl)amino)-3-methoxy-phenyl)-2-methyl-1H-imidazol-1-yl)-2-methylpropan-2-ol] | 2 nM
COc1cc(-c2nnc3n2CCN(C)C3)ccc1Nc1cc2cc(-c3cnn(CC(C)(C)O)c3)ccc2cn1 [Example 70, 1-(4-(3-((2-Methoxy-4-(7-methyl-5,6,7,8-tetrahydro-[1,2,4]triazolo[4,3-a]pyrazin-3-yl)-phenyl)amino)isoquinolin-6-yl)-1H-pyrazol-1-yl)-2-methylpropan-2-ol] | 2 nM
COCCn1cc(-c2ccc3cnc(Nc4ccc(C(=O)N5CC(OC)C5)cc4OC)cc3c2)cn1 [Example 72, (3-Methoxy-4-((6-(1-(2-methoxyethyl)-1H-pyrazol-4-yl)isoquinolin-3-yl)amino)phenyl)(3-methoxyazetidin-1-yl)methanone] | 3 nM
COc1cc(C(=O)N2CC(OC)C2)ccc1Nc1cc2cc(-c3cnn(CC(C)(C)OC)c3)ccc2cn1 [Example 74, (3-Methoxy-4-((6-(1-(2-methoxy-2-rnethylpropyl)-1H-pyrazol-4-yl)isoquinolin-3-yl)amino)-phenyl)(3-methoxyazetidin-1-yl)methanone] | 3 nM
Cc1nnc(-c2ccc(Nc3cc4cc(-c5cnn(CC(C)(C)O)c5)ccc4cn3)c(Cl)c2)o1 [Example 77, 1-(4-(3-((2-Chloro-4-(5-methyl-1,3,4-oxadiazol-2-yl)phenyl)amino)isoquinolin-6-yl)-1H-pyrazol-1-yl)-2-methylpropan-2-ol] | 23 nM
COc1cc(S(=O)(=O)N(C)C)ccc1Nc1cc2cc(-c3cnn(CC(C)(C)O)c3)ccc2cn1 [Example 80, 4-((6-(1-(2-Hydroxy-2-methylpropyl)-1H-pyrazol-4-yl)isoquinolin-3-yl)amino)-3-methoxy-N,N-dimethylbenzenesulfonamide] | 3 nM
COc1cc(-c2cnc(C#N)n2C)ccc1Nc1cc2cc(-c3cnn(CC(C)(C)O)c3)ccc2cn1 [Example 84, 5-(4-((6-(1-(2-Hydroxy-2-methylpropyl)-1H-pyrazol-4-yl)isoquinolin-3-yl)amino)-3-methoxyphenyl)-1-methyl-1H-imidazole-2-carbonitrile] | 5 nM
COCC1CN(C(=O)c2ccc(Nc3cc4cc(-c5cnn(CC(C)(C)O)c5)ccc4cn3)c(OC)c2)C1 [Example 86, (4-((6-(1-(2-Hydroxy-2-methylpropyl)-1H-pyrazol-4-yl)isoquinolin-3-yl)amino)-3-methoxy-phenyl)(3-(methoxymethyl)azetidin-1-yl)methanone] | 7 nM
COc1cc(C(=O)N2CC(OC)C2)ccc1Nc1cc2cc(-c3cnn(CC4(O)CCC4)c3)ccc2cn1 [Example 87, (4-((6-(1-((1-Hydroxycyclobutyl)methyl)-1H-pyrazol-4-yl)isoquinolin-3-yl)amino)-3-methoxy-phenyl)(3-methoxyazetidin-1-yl)methanone] | 8 nM
CCOc1cc(-c2nncn2C)ccc1Nc1cc2cc(-c3cnn(CC4(O)CCC4)c3)ccc2cn1 [Example 88, 1-((4-(3-((2-Ethoxy-4-(4-methyl-4H-1,2,4-triazol-3-yl)phenyl)amino)isoquinolin-6-yl)-1H-pyrazol-1-yl)methyl)cyclobutanol] | 7 nM
COc1cc(-c2cnc(C)n2C)ccc1Nc1cc2cc(C(=O)N(C)C)ccc2cn1 [Example 89, 3-((4-(1,2-Dimethyl-1H-imidazol-5-yl)-2-methoxyphenyl)amino)-N,N-dimethylisoquinoline-6-carboxamideone] | 472 nM
CNC(=O)c1ccc2cnc(Nc3ccc(-c4cnc(C)n4C)cc3OC)cc2c1 [Example 90, 3-((4-(1,2-Dimethyl-1H-imidazol-5-yl)-2-methoxyphenyl)amino)-N-methylisoquinoline-6-carboxamide] | 5 nM

Compound | IC50
COC1CN(C(=O)c2ccc(Nc3cc4cc(-c5cnn(CC(C)(C)O)c5)ccc4cn3)c(OC(F)F)c2)C1 [Example 91, (3-(Difluoromethoxy)-4-(6-(1-(2-hydroxy-2-methylpropyl)-1H-pyrazol-4-yl)isoquinolin-3-ylamino)phenyl)(3-methoxyazetidin-1-yl)methanone] | 2 nM
CCOc1cc(C(=O)N2CC(OC)C2)ccc1Nc1cc2cc(-c3cnn(CC(C)(C)O)c3)ccc2cn1 [Example 92, (3-Ethoxy-4-(6-(1-(2-hydroxy-2-methylpropyl)-1H-pyrazol-4-yl)isoquinolin-3-ylamino)phenyl)(3-methoxyazetidin-1-yl)methanone] | 2 nM
COc1cc(C(=O)N2CC(F)(F)C2)ccc1Nc1cc2cc(-c3cnn(CC(C)(C)O)c3)ccc2cn1 [Example 93, (3,3-Difluoroazetidin-1-yl)(4-(6-(1-(2-hydroxy-2-methylpropyl)-1H-pyrazol-4-yl)isoquinolin-3-ylamino)-3-methoxyphenyl)methanone] | 5 nM
COc1cc(C(=O)N2CCC(C#N)CC2)ccc1Nc1cc2cc(-c3cnn(CC(C)(C)O)c3)ccc2cn1 [Example 94, 1-(4-(6-(1-(2-Hydroxy-2-methylpropyl)-1H-pyrazol-4-yl)isoquinolin-3-ylamino)-3-methoxybenzoyl)piperidine-4-carbonitrile] | 2 nM
COc1cc(C(=O)N2CC3(CCOC3)C2)ccc1Nc1cc2cc(-c3cnn(CC(C)(C)O)c3)ccc2cn1 [Example 95, (4-(6-(1-(2-Hydroxy-2-methylpropyl)-1H-pyrazol-4-yl)isoquinolin-3-ylamino)-3-methoxyphenyl)(6-oxa-2-azaspiro[3,4]octan-2-yl)methanone] | 1 nM
COc1cc(C(=O)N2CC(OC)C2)ccc1Nc1cc2cc(-c3cn(CC(C)(C)O)nn3)ccc2cn1 [Example 96, (4-(6-(1-(2-Hydroxy-2-methylpropyl)-1H-1,2,3-triazol-4-yl)isoquinolin-3-ylamino)-3-methoxyphenyl)(3-methoxyazetidin-1-yl)methanone] | 2 nM
COc1cc(C(=O)N2CC(OC)C2)ccc1Nc1cc2cc(-c3cnn(CC(C)(C)O)n3)ccc2cn1 [Example 97, (4-(6-(2-(2-Hydroxy-2-methylpropyl)-2H-1,2,3-triazol-4-yl)isoquinolin-3-ylamino)-3-methoxyphenyl)(3-methoxyazetidin-1-yl)methanone] | 9 nM
COc1cc(-c2cnn(C)c2)ccc1Nc1cc2nc(-c3cnn(C)c3)ccc2cn1 [Example 100, N-(2-Methoxy-4-(1-methyl-1H-pyrazol-4-yl)phenyl)-2-(1-methyl-1H-pyrazol-4-yl)-1,6-naphthyridin-7-amine] | 6 nM
COc1cc(-c2cnn(C)c2)ccc1Nc1cc2nc(-c3cnn(CC(C)(C)O)c3)ccc2cn1 [Example 101, 1-(4-(7-(2-Methoxy-4-(1-methyl-1H-pyrazol-4-yl)phenylamino)-1,6-naphthyridin-2-yl)-1H-pyrazol-1-yl)-2-methylpropan-2-ol] | 3 nM
COc1cc(-c2cnc(C)n2C)ccc1Nc1cc2nc(-c3cnn(CC(C)(C)O)c3)ccc2cn1 [Example 102, 1-(4-(7-(4-(1,2-Dimethyl-1H-imidazol-5-yl)-2-methoxyphenylamino)-1,6-naphthyridin-2-yl)-1H-pyrazol-1-yl)-2-methylpropan-2-ol] | 2 nM
CCOc1cc(-c2nncn2C)ccc1Nc1cc2nc(-c3cnn(CC(C)(C)O)c3)ccc2cn1 [Example 103, 1-(4-(7-(2-Ethoxy-4-(4-methyl-4H-1,2,4-triazol-3-yl)phenylamino)-1,6-naphthyridin-2-yl)-1H-pyrazol-1-yl)-2-methylpropan-2-ol] | 1 nM
COc1cc(C(=O)N2CC(OC)C2)ccc1Nc1cc2nc(-c3cnn(CC(C)(C)O)c3)ccc2cn1 [Example 104, (4-(2-(1-(2-Hydroxy-2-methylpropyl)-1H-pyrazol-4-yl)-1,6-naphthyridin-7-ylamino)-3-methoxyphenyl)(3-methoxyazetidin-1-yl)methanone] | 2 nM
COc1cc(-c2nncn2C)ccc1Nc1cc2nc(-c3cnn(CC(C)(C)O)c3)ccc2cn1 [Example 105, 1-(4-(7-(2-Methoxy-4-(4-methyl-4H-1,2,4-triazol-3-yl)phenylamino)-1,6-naphthyridin-2-yl)-1H-pyrazol-1-yl)-2-methylpropan-2-ol] | 1 nM
COc1cc(-c2cnc(C)n2C)ccc1Nc1cc2nc(-c3cnn(CC4(O)CCC4)c3)ccc2cn1 [Example 106, 1-((4-(7-(4-(1,2-Dimethyl-1H-imidazol-5-yl)-2-methoxyphenylamino)-1,6-naphthyridin-2-yl)-1H-pyrazol-1-yl)methyl)cyclobutanol] | 1 nM
COc1cc(-c2cnn(C)c2)ccc1Nc1cc2nc(C(=O)N(C)C)ccc2cn1 [Example 107, 7-(2-Methoxy-4-(1-methyl-1H-pyrazol-4-yl)phenylamino)-N,N-dimethyl-1,6-naphthyridine-2-carboxamide] | 411 nM
